Measurements: US9243255B2, “Bacterial strains, plasmids, method of producing bacterial strains capable of chemolithotrophic arsenites oxidation and uses thereof” (UNIWERSYTET WARSZAWSKI, priority 2012, dated 2016)

Assays:
[1] = system: Agrobacterium tumefaciens LBA288; assay: As(III) (sodium arsenite) growth inhibition / MIC; format: cell-based
Protocol: (§1) FIG. 8. […] In order to compare the MICs for As(III), cultures were carried out in LB medium, with various concentrations of sodium arsenite (up to 20 mM). After 48 h of cultivation at 30° C., optical density of the cultures (OD600nm measurements of absorbance at 600 nm) was monitored.
(§2) In all the conjugations, transconjugants harbouring the plasmid pARS1 were obtained. To confirm that the newly constructed strains, harbouring the plasmid pARS1, have an increased resistance to arsenic, analysis of MIC—minimal concentration of As(III), inhibiting the growth of the following strains: Agrobacterium tumefaciens ARS3 (derivative of A. tumefaciens LBA288 harbouring the plasmid pARS1), Brevundimonas sp. ARS4 (derivative of Brevundimonas sp. sp. OS24R harbouring the plasmid pARS1), P. aminophilus ARS5 (derivative of P. aminophilus JCM7686 harbouring the plasmid pARS1) was carried out. Wild-type strains were used as the control. Growth experiment and MIC analysis for As(III) was carried out in LB medium, with various concentrations of sodium arsenite (up to 20 mM). After 48 h of cultivation at 30° C., optical density of cultures at OD600nm was monitored. […] MIC for As(III) for A. tumefaciens LBA288 strain was 1 mM, while for its derivative, comprising the plasmid pARS1, 20 mM; for P. aminophilus JCM7686R strain 5 mM, while for its derivative, containing the plasmid pARS1, 20 mM. In turn Brevundimonas sp. OS24R could tolerate the maximum of 10 mM of As(III), and its derivative harbouring the plasmid pARS1 was resistant to 20 mM of As(III). The conducted analyses allowed to confirm that the derivative of the plasmid pSinA, comprising the ars module (sequence from 43229 to 50772) can be used for constructing strains with increased resistance to arsenic.

Brevundimonas sp. OS24R = assay: As(III) (sodium arsenite) growth inhibition / MIC; format: cell-based
Protocol: as §1, §2

[2] = system: Paracoccus aminophilus JCM7686; assay: As(III) (sodium arsenite) growth inhibition / MIC; format: cell-based
Protocol: as §1, §2

[3] = system: Paracoccus alcaliphilus JCM7364R; assay: Sodium arsenite growth inhibition; format: cell-based; conditions: P. alcaliphilus JCM7364R
Sinorhizobium sp. M14 = assay: Resistance to As(III); format: cell-based
A. tumefaciens D10 = assay: Resistance to As(III); format: cell-based, Agrobacterium tumefaciens; conditions: A. tumefaciens D10 with pSinA
[4] = system: Paracoccus aminovorans JCM7685; assay: Sodium arsenite growth inhibition; format: cell-based; conditions: P. aminovorans JCM7685
[5] = system: Stenotrophomonas sp. LM24R; assay: Sodium arsenite growth inhibition; format: cell-based
[6] = system: Agrobacterium tumefaciens ARS3 (derivative of A. tumefaciens LBA288 harbouring the plasmid pARS1); assay: MIC for As(III); format: cell-based; conditions: derivative with pARS1, LB medium, 48 h, 30° C.
Protocol: as §1, §2

[7] = system: Brevundimonas sp. ARS4 (derivative of Brevundimonas sp. OS24R harbouring the plasmid pARS1); assay: MIC for As(III); format: cell-based; conditions: derivative with pARS1; LB medium, 48 h, 30° C.
Protocol: as §1, §2

[8] = system: P. aminophilus ARS5 (derivative of P. aminophilus JCM7686 harbouring the plasmid pARS1); assay: MIC for As(III); format: cell-based; conditions: Paracoccus aminophilus, derivative with pARS1, LB medium, 48 h, 30° C.
Protocol: as §1, §2

Pseudomonas sp. OS29R = assay: Resistance to As(III); format: cell-based; conditions: in words

O=[As]O [sodium arsenite]
concentration of sodium arsenite that inhibits growth ([1]; A. tumefaciens LBA288): 1 mM | MIC ([1]; Agrobacterium tumefaciens, LBA288, LB medium, 48 h, 30° C., OD600nm): 1 mM | concentration of sodium arsenite that inhibits growth (Brevundimonas sp. OS24R; Brevundimonas sp. OS24R): 10 mM | resistance to As (III) (Brevundimonas sp. OS24R; Brevundimonas sp. OS24R, in words): resistant | maximum of As(III) tolerated (Brevundimonas sp. OS24R; LB medium, 48 h, 30° C., OD600nm): ≤ 10 mM | concentration of sodium arsenite that inhibits growth ([2]; P. aminophilus JCM7686): 5 mM | MIC ([2]; Paracoccus aminophilus, JCM7686, 48 h, read-out: MIC for As(III)): 5 mM | concentration of sodium arsenite that inhibits growth [3]: 1 mM | resistant to As (III) (up to) (Sinorhizobium sp. M14): up to 20 mM | resistant to As (III) (up to) (A. tumefaciens D10): up to 15 mM | concentration of sodium arsenite that inhibits growth [4]: 1 mM | concentration of sodium arsenite that inhibits growth [5]: 1 mM | MIC [6]: 20 mM | As(III) concentration the strain is resistant to [7]: 20 mM | MIC [8]: 20 mM | resistance to As (III) (Pseudomonas sp. OS29R): resistant
